Patent publication US20240254109A1, “SALT CONTAINING PIPERAZINE POLYCYCLIC DERIVATIVE, CRYSTAL FORM THEREOF, PREPARATION METHOD THEREFOR, AND USE THEREOF” (Shanghai Hansoh Biomedical Co., Ltd., priority 2021, published 2024)
Where a name gives a salt, the structure may show the parent alone.

Columns and labels:
[1] = Solid stability experiment of crystal form of salt; assay type: physicochemical
Protocol: 4. Solid Stability Experiment
The physicochemical stability of crystal form of salt of compound N-(trans-3-(2-(4-(2,3-dichlorophenyl)piperazin-1-yl)ethyl)cyclobutyl)oxazole-2-carboxamide under the conditions of light 50001×, high temperature 60° C., high humidity 92.5% RH and high temperature and high humidity 50° C. 75% RH was investigated, which provided a basis for crystal form screening and compound crystal form storage.
About 1 mg of different crystal forms of salt were taken and placed under the conditions of light 50001×, high temperature 60° C., high humidity 92.5% RH, high temperature and high humidity 50° C. 75% RH for 5 days and 10 days. The salt content was determined by HPLC and external standard method, and the change of relevant substances was calculated by chromatographic peak area normalization method.

[2] = Pressure crystal transformation test; assay type: physicochemical; settings: before and after pressure, tablet press at maximum pressure
Description: 4.5 Pressure Crystal Transformation Test
The tablet press was adjusted to the maximum pressure. It was pressed into a tablet and then was subjected to PXRD characterization.

[3] = Grinding crystal transformation test; assay type: physicochemical; settings: before and after grinding in a mortar for 5 min
Description: 4.6 Grinding Crystal Transformation Test

[4] = Hygroscopicity experiment of crystal form A of hydrochloride; assay type: physicochemical
Description: 5 Hygroscopicity Experiment

[5] = Thermodynamic stability experiment of crystal form (pulping in solvents); assay type: physicochemical; settings: for Results (crystal form after pulping, XRPD): pulped 1 week at room temperature and 50° C.
Protocol: 6. Thermodynamic Stability Experiment of Crystal Form
An organic solvent with a certain solubility was selected. […] The supernatant was discarded, and the solid was dried in vacuum (−0.1 Mpa) overnight at 50° C. The XRPD of the solid was determined and compared with XRPD of raw compound salt.

[6] = Salt form quantification by HPLC-ELSD; assay type: physicochemical
Protocol: 7. Salt Form Quantification
The number of acids binding in the salt form was quantified by HPLC-ELSD test.
An appropriate amount of NaCl was weighed, and a series of linear solutions of different concentrations with the diluent acetonitrile-water (50:50) was prepared.
The above linear solution and hydrochloride samples solution was taken to filter.
7.3 Experimental results: The content of hydrochloric acid in hydrochloride was calculated according to the external standard method, and the quantitative results of hydrochloride are shown in Table 30.

[7] = Pharmacokinetics study in rats; assay type: in vivo
Description: 8. Pharmacokinetics Study in Rats

[8] = Crystal form stability study of hydrochloride for 30 days; assay type: physicochemical; settings: 30 days
Protocol: 9. Crystal Form Stability Study of Hydrochloride for 30 Days
The 30 days stability of hydrochloride of N-(trans-3-(2-(4-(2,3-dichlorophenyl)piperazin-1-yl)ethyl)cyclobutyl)oxazole-2-carboxamide under four conditions of 60° C. (closed), 40° C. & RH 75% (open), 25° C./RH 92.5% (open) and light (5000±500 Lux) was detected, which provided scientific basis for the production, packaging, storage and transportation conditions of drugs.
The diluent 80% methanol solution was added to prepare a solution containing about 0.5 mg/mL hydrochloride. The mixture was sonicated for 30 min to produce a clear solution. 1 mL of the solution was filtered and measured by HPLC. See “2.3.4” for the HPLC analysis method. The content of related substances was calculated according to the peak area normalization method, and the results are shown in Table 32 below.

[9] = High humidity, 5 Days, listed as Crystal form A of hydrochloride
[10] = High temperature and high humidity, 5 Days
[11] = High temperature and high humidity, 10 Days
[12] = Light, 5 Days, listed as Crystal form A of hydrochloride
[13] = Light, 10 Days, listed as Crystal form A of hydrochloride
[14] = light, 60° C., 92.5% RH, 50° C. 75% RH, 5 and 10 days
[15] = light, 60° C., 92.5% RH, 40° C. & 75% RH

With `O=C(N[C@H]1C[C@H](CCN2CCN(c3cccc(Cl)c3Cl)CC2)C1)c1ncco1` [crystal form A of hydrochloride, N-(trans-3-(2-(4-(2,3-dichlorophenyl)piperazin-1-yl)ethyl)cyclobutyl)oxazole-2-carboxamide] the “Maximum single impurity increase %” value [1, 9] was 0.06%, the “Total impurity increase %” value [1, 9] was 0.06% and the “Maximum single impurity increase %” value ([1]; High humidity, 10 Days) was less than 0.02%. The “Total impurity increase %” value ([1]; High humidity, 10 Days) was less than 0.02%, the “Maximum single impurity increase %” value [1, 10] was less than 0.02% and the “Total impurity increase %” value [1, 10] was less than 0.02%. For the same molecule, the “Maximum single impurity increase %” value [1, 11] was less than 0.02%, the “Total impurity increase %” value [1, 11] was less than 0.02% and the “Maximum single impurity increase %” value ([1]; High temperature, 5 Days) was less than 0.02%. The “Total impurity increase %” value ([1]; High temperature, 5 Days) was less than 0.02%, the “Maximum single impurity increase %” value ([1]; High temperature, 10 Days) was less than 0.02% and the “Total impurity increase %” value ([1]; High temperature, 10 Days, listed as Crystal form A of hydrochloride) was 0.03%. For the same molecule, the “Maximum single impurity increase %” value [1, 12] was less than 0.02%, the “Total impurity increase %” value [1, 12] was less than 0.02% and the “Maximum single impurity increase %” value [1, 13] was less than 0.02%. For the same molecule, the “Total impurity increase %” value [1, 13] was less than 0.02%, the crystal form stability [1, 14] was “stable under all conditions” and the impurities [1, 14] was “not significantly increased”. For the same molecule, the “crystal transformation (PXRD)” value [2] was “didn't undergo crystal transformation”, the “crystal transformation (PXRD)” value [3] was “didn't undergo crystal transformation” and the “stability in humid environments” value [4] was “stable in humid environments”. The “thermodynamic stability of crystal form” value [5] was “thermodynamically stable crystal form”, the “Results (crystal form after pulping, XRPD)” value (“Results” below) ([5]; 1,4-Dioxane) was “Crystal form A” and the “crystal form after being pulped by different solvents” value ([5]; 1 week, room temperature and 50° C.) was “does not change”. For the same molecule, the “Results” value ([5]; 2-Butanone) was “Crystal form A”, the “Results” value ([5]; 2-Methyl-tetrahydrofuran) was “Crystal form A” and the “Results” value ([5]; Acetone) was “Crystal form A”. For the same molecule, the “Results” value ([5]; Acetonitrile) was “Crystal form A”, the “Results” value ([5]; Dichloromethane) was “Crystal form A” and the “Results” value ([5]; Ethanol) was “Crystal form A”. For the same molecule, the “Results” value ([5]; Ethyl acetate) was “Crystal form A”, the “Results” value ([5]; Ethyl formate) was “Crystal form A” and the “Results” value ([5]; Isopropanol) was “Crystal form A”. The “Results” value ([5]; Methanol) was “Crystal form A”, the “Results” value ([5]; Methyl tert-butyl ether) was “Crystal form A” and the “Results” value ([5]; Tetrahydrofuran) was “Crystal form A”. For the same molecule, the “Results” value ([5]; Toluene) was “Crystal form A”, the “Results” value ([5]; n-Heptane) was “Crystal form A” and the “Determination of Cl-percentage content in hydrochloride” value ([6]; Batch 1) was 7.82%. For the same molecule, the “Determination of Cl-percentage content in hydrochloride” value ([6]; Batch 2) was 7.90%, the exposure versus dose ([7]; dose of 100 mg/kg and 30 mg/kg) was “dose-related” and the “in vivo exposure compared with crystal form B of free base” value ([7]; gavage) was “increased”. The stability [8] was “good stability”, the “crystal form change (PXRD)” value [8, 15] was “does not undergo crystal form change” and the “impurities (HPLC)” value [8, 15] was “do not increase significantly”.
